The values below come from patent publication US20230322815A1, “NOVEL COMPOUNDS AND THERAPEUTIC USES THEREOF” (University of Huddersfield, priority 2020, published 2023).

In data set [1] the test system is AMPK. Put plainly: Cell-free kinase screen. It is filed as biochemical, human. The following applies: 10 μM complex. On the procedure: (§1) FIG. 9. Effects of [L2Zn3]^6+ and [L2Cu3]^6+ on the activity of purified human kinases. a,b, Percentage inhibition of the indicated kinases by [L2Zn3]^6+ (a) and [L2Cu3]^6+ (b) respectively at a concentration of 10 μM; full results are presented in the ESI. c,d, Kinases whose activity is stimulated by [L2Zn3]^6+ (c) or [L2Cu3]^6+ (d) complexes. e,f, Kinome map showing kinases inhibited (red) or stimulated (green) by [L2Zn3]^6+ (e) or [L2Cu3]^6+ (f). III ustration reproduced courtesy of Cell Signalling Technology Inc (www.cellsignal.com)
(§2) FIG. 16. The effect of [L2Zn3]^6+ and [L2Cu3]^6+ on the activity of recombinant human kinases. The compounds were submitted to the MRC Protein Phosphorylation and Ubiquitination Unit International Centre for Kinase Profiling (University of Dundee) and tested at a concentration of 10 μM against 140 human kinases (Premier Screen).
(§3) Given the ability of the Zn^2+ complex to dephosphorylate amino acids serine, tyrosine and threonine (FIG. 6) and the Cu^2+ complex to bind phenyl phosphate (FIG. 3), it was examined whether the complexes affect the activity of kinases. This was assessed in a cell-free screen of 140 kinases using purified recombinant human kinases and substrate peptides incubated in the presence of ^33P ATP and 10 μM complex or solvent control. […]

Data set [2] concerns the target recombinant Src (p-Y527, p-Y416) (Homo sapiens, UniProt P12931). Put plainly: Western blot of purified recombinant kinase after exposure to complex. The following applies: 50 μM complex, 4 hours, in the presence of ATP. It is filed as biochemical. On the procedure: (§4) FIG. 10. Western blot analysis of purified recombinant Src and AMPK following exposure to [L2Zn3]^6+ and [L2Cu3]^6+. Purified enzymes were incubated with complexes (50 μM) for 4 hours in the presence of ATP prior to analysis.
Protein lysates and recombinant proteins were resolved on 15% SDS polyacrylamide gels. Proteins were electroblotted onto nitrocellulose membrane by wet transfer in 1×Tris Glycine buffer (Biorad) at 35 mA overnight at room temperature (Allison et al., 2014). After blocking of membranes, these were incubated with primary antibody overnight at 4° C. before addition of rabbit or mouse secondary antibody (HRP-conjugated) for 1 h at room temperature and development of blots by enhanced chemiluminescence. Primary antibodies were: anti-Src (total) (Cell Signalling Technology #2123 1:1000), anti-phosphorylated Src (Y527) (Cell Signalling Technology #21055 1:1000), anti-phosphorylated Src (Y416) (Cell Signalling Technology #69435 1:1000), anti-AMPKα (total) (Cell Signalling Technology #2532 1:1000), anti-phosphorylated AMPKα (T172) (Cell Signalling Technology […] 1:1000), anti-phospho-Tyr (pan) (Cell Signalling Technology #8954 1:2000), anti-p53 (Santa Cruz, DO-1 clone, 1:1000), anti-β-actin (Merck MAB1501, 1:40,000). Quantification of signals was performed by densitometry using Image J software.
For Src, effects of the complexes on two key regulatory phospho-amino acids were examined, Y527 and Y416 (FIG. 10). […] The decrease in p-Y527 is consistent with the selective phosphatase activity of [L2Zn3]^6+.
In general terms: A western blot detects proteins with antibodies after separation by electrophoresis.

Data set [3] deals with recombinant AMPK (AMPKα p-T172). Described as above. Conditions: 50 μM complex, 4 hours, in the presence of ATP. It is filed as biochemical, human. On the procedure:
as §4
Protein lysates and recombinant proteins were resolved on 15% SDS polyacrylamide gels. Proteins were electroblotted onto nitrocellulose membrane by wet transfer in 1×Tris Glycine buffer (Biorad) at 35 mA overnight at room temperature (Allison et al., 2014). After blocking of membranes, these were incubated with primary antibody overnight at 4° C. before addition of rabbit or mouse secondary antibody (HRP-conjugated) for 1 h at room temperature and development of blots by enhanced chemiluminescence. […] Quantification of signals was performed by densitometry using Image J software.
To investigate these hypotheses further, regulatory phospho-amino acids of two key kinases identified by the kinase screen, AMPK and Src, were analysed following incubation of the recombinant kinases with Zn^2+ or Cu^2+ complexes.

Data set [4] can be described thus: Dephosphorylation of purified phosphorylated AMPK peptide. The protocol:
Unless otherwise stated, all solvents and materials were purchased from either Sigma Aldrich, Fisher Scientific or Fluorochem and were used without further purification. ^1H, ^13C, DEPT-135 and DEPT-90 NMR data was recorded on either a Bruker Fourier 300 MHz or Bruker Avance III (AVIII) 400 MHz spectrometer or a Bruker Avance Neo 600 MHz NMR spectrometer. Mass spectra were obtained on an Agilent 6210 TOF MS with electrospray ionisation operating in positive ion mode and mass spectra of metal complexes were obtained on a Bruker Micro TOF-q LC mass spectrometer with electrospray ionisation operating in positive ion mode. Phosphorylated ‘SAMS’ peptide HMRSAMS*GLHLVKRR (phosphorylated on the serine residue) was obtained from PeptideSynthetics, Peptide Protein Research Ltd (>95% purity).
There are several potential mechanisms which could lead the observed kinase inhibition ‘readout’ of this screen including, i) direct ATP hydrolysis by the complex(es) and differing Km of the kinases for ATP, and, ii) dephosphorylation of the peptide substrate by the phosphatase activity of the Zn^2+ complex resulting in cycles of peptide phosphorylation by active recombinant enzyme and dephosphorylation by the complex.

Data set [5] concerns 140 human kinases. Put plainly: Cell-free screen of 140 kinases (33P ATP, Premier Screen). It is filed as biochemical. The following applies: 10 μM complex. The protocol:
as §1, §2, §3

For data set [6], the system named is chick embryo. Put plainly: Embryonic toxicity, HCT116 in ovo study. It is filed as in vivo, chick (White Leghorn). Conditions: for embryo tolerability: all doses tested, no statistically significant difference to solvent control; for % Alive / % Dead / Alive (embryos at E18) / Dead (embryos at E18): HCT116 study. The protocol: 10^6 tumor cells (H460, HT29 or HCT116) were grafted onto the upper chorioallantoic membrane (CAM) of the developing chick embryo on embryonic day 9 (E9). Access to the upper CAM was through a small hole drilled through the eggshell of fertilized White Leghorn eggs (into the air sac) on E9 (15 eggs per experimental group).
100 μl of freshly prepared experimental compound, vehicle control or standard-of-care (SoC) drug at their working concentrations were pipetted onto the tumor graft at E11, E13, E15 and E17. On day E18, the upper CAM (with tumor) was removed, washed by PBS buffer and then directly transferred in PFA (fixation for 48 hrs). After that, tumors were carefully cut away from normal CAM tissue and weighed.
Embryonic viability was checked daily. The number of dead embryos was also counted on E18, to evaluate treatment-induced embryo toxicity.

The target in data set [7] is Src (Homo sapiens, UniProt P12931). Put plainly: Cell-free kinase screen. The following applies: 10 μM complex. It is filed as biochemical. On the procedure:
as §1, §2, §3

Where [8] appears, read: dose [1]: L2Zn3 70.5 μM, L2Cu3 75 μM.
The mark [9] stands for this setting: dose [2]: L2Zn3 141 μM, L2Cu3 150 μM.
Where [10] appears, read: dose [3]: L2Zn3 282 μM, L2Cu3 300 μM.

Each structure is given as a SMILES string.

Sequence of recombinant Src (p-Y527, p-Y416) (P12931 whole entry): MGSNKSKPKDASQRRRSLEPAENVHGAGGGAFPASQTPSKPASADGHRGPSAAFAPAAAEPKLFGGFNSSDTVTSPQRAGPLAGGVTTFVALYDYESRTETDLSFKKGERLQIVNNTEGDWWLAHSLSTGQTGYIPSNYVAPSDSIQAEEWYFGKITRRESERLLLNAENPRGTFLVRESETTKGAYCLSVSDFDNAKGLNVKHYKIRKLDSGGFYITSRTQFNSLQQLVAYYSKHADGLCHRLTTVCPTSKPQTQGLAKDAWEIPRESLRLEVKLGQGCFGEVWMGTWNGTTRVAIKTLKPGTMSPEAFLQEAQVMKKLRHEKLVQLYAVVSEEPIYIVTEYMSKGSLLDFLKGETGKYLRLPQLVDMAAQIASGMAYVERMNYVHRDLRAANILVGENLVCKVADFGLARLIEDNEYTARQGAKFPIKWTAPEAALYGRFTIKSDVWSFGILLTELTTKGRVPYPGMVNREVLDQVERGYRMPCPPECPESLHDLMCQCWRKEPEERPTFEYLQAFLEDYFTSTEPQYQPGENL
Sequence of Src (P12931 whole entry): as above

For `[Cu+2].[Cu+2].[Cu+2].c1ccc(-c2csc(NCCN(CCNc3nc(-c4ccccn4)cs3)CCNc3nc(-c4ccccn4)cs3)n2)nc1.c1ccc(-c2csc(NCCN(CCNc3nc(-c4ccccn4)cs3)CCNc3nc(-c4ccccn4)cs3)n2)nc1` [[L2Cu3]^6+], the “effect on AMPK activity in the kinase screen” value in data set [1] is “inhibition of AMPK”. For the same molecule, the “detection of p-Y416” value in data set [2] was “could not be detected”. In data set [3], the “AMPKα p-T172 levels by immunoblotting” value is “significantly reduced p-T172 levels”. In data set [4], the “dephosphorylation of phosphorylated AMPK peptide” value is recorded as “neither complex resulted in dephosphorylation”. The “inhibition of the most potently inhibited kinases” value in data set [5] is listed as approximately 100%. Also, in data set [6], the embryo tolerability entry is given as “well tolerated”. Besides, in data set [6] (setting [8]), the “% Alive” value is 100%, the “% Dead” value stood at 0%, the “Alive (embryos at E18)” value was 14 and the “Dead (embryos at E18)” value was found to be 0. In data set [6] (setting [9]), the “% Alive” value was 86.67%, the “% Dead” value came out at 13.33%, the “Alive (embryos at E18)” value is 13 and the “Dead (embryos at E18)” value is 2. Also, in data set [6] (setting [10]), the “% Alive” value was found to be 86.67%, the “% Dead” value was determined as 13.33%, the “Alive (embryos at E18)” value amounted to 13 and the “Dead (embryos at E18)” value was found to be 2. Moreover, the “effect on Src kinase activity in the kinase screen” value in data set [7] is “activity was increased”.

Regarding `[Zn+2].[Zn+2].[Zn+2].c1ccc(-c2csc(NCCN(CCNc3nc(-c4ccccn4)cs3)CCNc3nc(-c4ccccn4)cs3)n2)nc1.c1ccc(-c2csc(NCCN(CCNc3nc(-c4ccccn4)cs3)CCNc3nc(-c4ccccn4)cs3)n2)nc1` [[L2Zn3]^6+], in data set [1], the “effect on AMPK activity in the kinase screen” value was “inhibition of AMPK”. Further, in data set [2], the “decrease in p-Y527 relative to total Src levels” value is on record as approximately 30% and the “increase in p-Y416 levels” value is listed as approximately 5 fold. Also, the “AMPKα p-T172 levels by immunoblotting” value in data set [3] is recorded as “significantly reduced p-T172 levels”. Also, the “dephosphorylation of phosphorylated AMPK peptide” value in data set [4] is listed as “neither complex resulted in dephosphorylation”. The “inhibition of the most potently inhibited kinases” value in data set [5] is on record as approximately 100%. Further, in data set [6], the embryo tolerability result was “well tolerated”. In data set [6] (setting [8]), the “% Alive” value is on record as 100%, the “% Dead” value came out at 0%, the “Alive (embryos at E18)” value is 15 and the “Dead (embryos at E18)” value was determined as 0. In data set [6] (setting [9]), the “% Alive” value is reported as 86.67%, the “% Dead” value is given as 13.33%, the “Alive (embryos at E18)” value is 13 and the “Dead (embryos at E18)” value came out at 2. Besides, in data set [6] (setting [10]), the “% Alive” value was 80.00%, the “% Dead” value is given as 20.00%, the “Alive (embryos at E18)” value is listed as 12 and the “Dead (embryos at E18)” value was 3. In addition, in data set [7], the “effect on Src kinase activity in the kinase screen” value was “activity was increased”.
